Results published in paper PMC10823399 (Journal of medicinal chemistry, 2015).

Tests used:
D2R [1] = molecular target: T1, D2R (Homo sapiens, UniProt P14416); assay: [35S]GTPγS binding assay, interaction with dopamine; type: biochemical; details: composite cooperativity with dopamine
D2LR [2] = molecular target: T2, D2LR (Homo sapiens, UniProt P14416); assay: ERK1/2 phosphorylation assay, interaction with dopamine; type: cell-based; details: for Kb: operational model of allosterism (Equation 5); for activity at the D2R in words: effect on dopamine concentration-response, highest concentration 300 μM
T2 sequence (P14416 whole entry): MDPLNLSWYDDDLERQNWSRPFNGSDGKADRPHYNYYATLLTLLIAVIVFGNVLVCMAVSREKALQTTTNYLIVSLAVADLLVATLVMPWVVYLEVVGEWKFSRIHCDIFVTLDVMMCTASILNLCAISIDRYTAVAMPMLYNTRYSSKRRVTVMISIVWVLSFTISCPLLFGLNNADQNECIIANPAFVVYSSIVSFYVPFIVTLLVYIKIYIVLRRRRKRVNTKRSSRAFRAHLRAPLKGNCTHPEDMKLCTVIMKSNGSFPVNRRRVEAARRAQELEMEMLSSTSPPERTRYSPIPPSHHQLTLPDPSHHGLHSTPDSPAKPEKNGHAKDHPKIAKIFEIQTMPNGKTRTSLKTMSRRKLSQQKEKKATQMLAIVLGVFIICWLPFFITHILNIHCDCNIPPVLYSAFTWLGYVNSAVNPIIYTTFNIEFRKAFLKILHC

D2LR [3] = molecular target: T2, D2LR; assay: BRET cAMP assay; type: cell-based
D2R [4] = molecular target: T1, D2R; assay: [3H]spiperone binding assay
Val91^2.61Ala D2R = Val91^2.61Ala D2R (Homo sapiens, UniProt P14416, V91A); assay: ERK1/2 phosphorylation assay at mutant D2R; type: cell-based
Val91^2.61Ala D2R, sequence (P14416 whole entry V91A): as the sequence (P14416 whole entry) above, with V91A counted along it

Glu95^2.65Ala D2R = Glu95^2.65Ala D2R (Homo sapiens, UniProt P14416, E95A); assay: ERK1/2 phosphorylation assay at mutant D2R; type: cell-based
Glu95^2.65Ala D2R, sequence (P14416 whole entry E95A): as the sequence (P14416 whole entry) above, with E95A counted along it

D2R [5] = molecular target: T1, D2R; assay: Interaction of bitopic ligand 36 with dopamine at the D2R
[6] = WT D2R, binding cooperativity with dopamine
[7] = Table 3, binding cooperativity with dopamine
[8] = Table 4, binding cooperativity with dopamine

T1 sequence (P14416 whole entry): as the sequence (P14416 whole entry) above

Compound `CN(C)CC[C@H]1CC[C@H](NC(=O)c2cc3ccccc3[nH]2)CC1.Cl` [Compound 9a, N-((trans)-4-(2-(Dimethylamino)ethyl)cyclohexyl)-1H-indole-2-carboxamide hydrochloride] has a Logαβ (D2R [1]) of −0.84 ± 0.15, a αβ (D2R [1]; <1 negative) of 0.14 and a Kb (D2LR [2]; KB, WT D2R) of 3 µM. The Logα (D2LR [2]; [6]) was −0.61 ± 0.14, the α (D2LR [2]; [6]) was 0.25 and the Logβ (D2LR [2]; WT D2R, modulation of dopamine efficacy, fixed to −100 in the fit) was −100. The Kb (D2LR [2]; pKB, WT D2R) was 2.88 µM.

`CCCN(CCC)CC[C@H]1CC[C@H](NC(=O)c2cc3ccccc3[nH]2)CC1` [Compound 9b, N-((trans)-4-(2-(Dipropylamino)ethyl)cyclohexyl)-1H-indole-2-carboxamide] was tested, and the “mode of action in words” value (D2LR [3]) was “competitive partial agonist”, the “mode of action in words” value (D2LR [2]; pERK1/2 assay) was “partial agonist” and the Ki (D2R [4]) was 20 µM.

In the case of `NC(=O)c1cc2ccccc2[nH]1` [Compound 11a, 1H-Indole-2-carboxamide], the “activity at the D2R in words” value (D2LR [2]) is reported as “does not exhibit receptor binding”.

For `CCNC(=O)c1cc2ccccc2[nH]1` [Compound 11b, N-Ethyl-1H-indole-2-carboxamide], the Logα (D2LR [2]; [7]) was −0.35 ± 0.21.

`CCCNC(=O)c1cc2ccccc2[nH]1` [Compound 11c, N-Propyl-1H-indole-2-carboxamide] gave a Logα (D2LR [2]; [7]) of −0.60 ± 0.09.

`CCCCNC(=O)c1cc2ccccc2[nH]1` [Compound 11d, N-Butyl-1H-indole-2-carboxamide] was tested, and the “increase in affinity compared to 3” value (D2LR [2]) was 7 fold, the “increase in negative cooperativity compared to 3” value (D2LR [2]) was 10 fold and the Logα (D2LR [2]; [7]) was −1.63 ± 0.11. The Logα (D2LR [2]; Table 5, Wild Type) was −1.63 ± 0.11, the α (D2LR [2]; Table 5, Wild Type) was 0.02 and the Logβ (D2LR [2]; Table 5, Wild Type, constrained) was −100. For the same compound, the “decrease in affinity caused by mutation” value (Val91^2.61Ala D2R; Val91^2.61Ala vs WT) was 14 fold, the Logα (Glu95^2.65Ala D2R; Table 5, Glu95^2.65Ala) was −1.24 ± 0.17 and the α (Glu95^2.65Ala D2R; Table 5, Glu95^2.65Ala) was 0.05. The Logβ (Glu95^2.65Ala D2R; Table 5, Glu95^2.65Ala, no modulation of dopamine efficacy) was 0.

`C=CCNC(=O)c1cc2ccccc2[nH]1` [Compound 11e, N-Allyl-1H-indole-2-carboxamide] showed a Logα (D2LR [2]; [7]) of −0.26 ±0.06.

For `O=C(NCCO)c1cc2ccccc2[nH]1` [Compound 11f, N-(2-Hydroxyethyl)-1H-indole-2-carboxamide], the “activity at the D2R in words” value (D2LR [2]) was “inactivity”.

Compound `CC(C)(C)NC(=O)c1cc2ccccc2[nH]1` [Compound 11h, N-(tert-Butyl)-1H-indole-2-carboxamide] has a Logα (D2LR [2]; [7]) of −0.58 ± 0.13.

`CC(C)N(C(=O)c1cc2ccccc2[nH]1)C(C)C` [Compound 11j, N,N-Diisopropyl-1H-indole-2-carboxamide] gave a Logα (D2LR [2]; [7]) of −1.39 ± 0.11.

Work on `O=C(NC1CCC1)c1cc2ccccc2[nH]1` [Compound 11p, N-Cyclobutyl-1H-indole-2-carboxamide] yielded a Logα (D2LR [2]; [7]) of −1.77 ± 0.27.

In the case of `O=C(NC1CCCC1)c1cc2ccccc2[nH]1` [Compound 11q, N-Cyclopentyl-1H-indole-2-carboxamide], the Logα (D2LR [2]; [7]) is reported as −0.63 ± 0.11.

With `O=C(NC1CCCCC1)c1cc2ccccc2[nH]1` [Compound 11r, N-Cyclohexyl-1H-indole-2-carboxamide] the “activity at the D2R in words” value (D2LR [2]) was “no determinable activity”.

`O=C(NN1CCCCC1)c1cc2ccccc2[nH]1` [Compound 11s, N-(Piperidin-1-yl)-1H-indole-2-carboxamide] was tested, and the Logα (D2LR [2]; [7]) was −0.53 ± 0.13.

`CC(C)NC(=O)c1[nH]c2ccccc2c1F` [Compound 13a, 3-Fluoro-N-isopropyl-1H-indole-2-carboxamide] gave a Logα (D2LR [2]; [7]) of −0.72 ± 0.35 and a α (D2LR [2]; [7]) of 0.19.

For `CC(C)NC(=O)c1cc2c(F)cccc2[nH]1` [Compound 13b, 4-Fluoro-N-isopropyl-1H-indole-2-carboxamide], the Logα (D2LR [2]; [7]) was −1.14 ± 0.10.

`CC(C)NC(=O)c1cc2cccc(F)c2[nH]1` [Compound 13e, 7-Fluoro-N-isopropyl-1H-indole-2-carboxamide] gave a Logα (D2LR [2]; [7]) of −0.96 ± 0.12.

For `CC(C)NC(=O)c1cc2ccccc2n1C` [Compound 17, N-Isopropyl-1-methyl-1H-indole-2-carboxamide], the “activity at the D2R in words” value (D2LR [2]) was “did not show activity”.

Work on `CC(C)NC(=O)c1nc2ccccc2[nH]1` [Compound 19, N-Isopropyl-1H-benzo[d]imidazole-2-carboxamide] yielded a Logα (D2LR [2]; [8]) of −1.07 ± 0.22.

In the case of `CC(C)NC(=O)c1nc2ccccc2o1` [Compound 21, N-Isopropylbenzo[d]oxazole-2-carboxamide], the “activity at the D2R in words” value (D2LR [2]) is reported as “did not show activity”.

For `CC(C)NC(=O)c1csc2ccccc12` [Compound 25b, N-Isopropylbenzo[b]thiophene-3-carboxamide], the “activity at the D2R in words” value (D2LR [2]) was “did not show activity”.

With `CC(C)NC(=O)c1cc2cccnc2[nH]1` [Compound 27, N-Isopropyl-1H-pyrrolo[2,3-b]pyridine-2-carboxamide] the “activity at the D2R in words” value (D2LR [2]) was “lack of activity”.

In the case of `CC(C)NC(=O)c1cccc2[nH]ccc12` [Compound 30a, N-Isopropyl-1H-indole-4-carboxamide], the “activity at the D2R in words” value (D2LR [2]) is reported as “devoid of detectable activity”.

`CC(C)NC(=O)c1ccc2[nH]ccc2c1` [Compound 30b, N-Isopropyl-1H-indole-5-carboxamide] showed a Logα (D2LR [2]; [8]) of −1.27 ± 0.3.

`CC(C)NC(=O)c1ccc2cc[nH]c2c1` [Compound 30c, N-Isopropyl-1H-indole-6-carboxamide] gave a Logα (D2LR [2]; [8]) of −1.1 ± 0.3.

`CC(C)NC(=O)c1cccc2cc[nH]c12` [Compound 30d, N-Isopropyl-1H-indole-7-carboxamide] was tested, and the “activity at the D2R in words” value (D2LR [2]) was “devoid of detectable activity”.

`N#Cc1ccc2c(c1)CN(CCCCNC(=O)c1cc3ccccc3[nH]1)CC2` [Compound 36, N-(4-(7-Cyano-3,4-dihydroisoquinolin-2(1H)-yl)butyl)-1H-indole-2-carboxamide] was tested, and the Kb (D2R [5]) was 0.0813 µM, the “increase in affinity as compared to 1” value (D2R [5]) was 10 fold and the Logαβ (D2R [5]; Figure 7, negative cooperativity with dopamine) was −1.32 ± 0.09.

In the case of `NCCc1ccc(O)c(O)c1` [dopamine, reference compound], the LogτA (D2LR [2]; WT D2R expressing cell line) is reported as 0.74 ± 0.07, the LogτA (Val91^2.61Ala D2R; V91A D2R expressing cell line) is reported as 0.65 ± 0.19 and the LogτA (Glu95^2.65Ala D2R; E95A D2R expressing cell line) is reported as 0.71 ± 0.24.
